Laboratory results reported in patent US8937038B2, “Composition containing peptide ligand that bonds with CXCR2 for treating infective and inflammatory diseases” (priority 2010, dated 2015).

Experiments:
[1] = tested on: caspase-3; experiment: Caspase-3 activation in splenocytes of CLP mice (immunohistochemistry); assay type: in vivo, mouse; conditions: FIG. 23
Description: First, a tissue embedded in paraffin was deparaffinized using a typical histological protocol, and performed digoxigenin-dUTP nick end labeling (TUNEL) analysis. Sections were permeated into the Triton X-100 at 4° C. for 2 minutes, and the sections were flooded in terminal deoxynucleotidyl transferase (TdT) and a TUNEL reagent at 37° C. for 60 minutes. A percentage of apoptotic cells (TUNEL-positive cells) was determined by counting 500 splenocytes under an optical microscope. Also, the tissue embedded in paraffin was deparaffinized using a typical histological protocol, and immunohistochemical analysis was performed on the microtomed sections of caspase-3 (Wang J. et al. 2001 Proc. Natl. Acad. Sci. USA 98:4038-43).
The apoptosis of immune cells is associated with the mortality on sepsis. Here, the CLP was proven to remarkably increase apoptosis of splenocytes (FIG. 22). […] Apoptosis of lymphocytes was induced by activation of some major caspases including caspase-3. Therefore, not only the effect of Ac-PGP on activation of caspase-3 but also the effect of CLP activation by caspase-3 were examined (FIG. 23).

[2] = tested on: PBMCs; experiment: Cytokine production by LPS-stimulated human PBMCs; assay type: cell-based; conditions: human PBMCs stimulated with LPS
Excerpt: (§1) All kinds of protocols used in human beings were approved by the Institutional Review Board (IRB) at Dong-A University Hospital, and prior consents were obtained from all blood donors. Peripheral blood was collected from healthy donors, and human peripheral monocytes were separated using a Histopaque-1077 gradient. Neutrophils were separated through methods such as dextran precipitation of red blood cell, hypotonic lysis, and usage of lymphocyte isolation medium gradient, as known in the related art (Bae, Y. S. et al. Blood 97, 2854-2862(2001)). The separated human leukocytes were used immediately.
Next, an effect of the Ac-PGP on production of cytokines by human neutrophils and PBMCs was examined. […] A human CXCR2 chemokine agonist CXCL8 had few effects on production of TNF-α or IFN-γ stimulated with LPS (FIG. 28 to FIG. 31). Therefore, the Ac-PGP could improve both antiseptic activities in leukocytes derived from human beings and mice.

[3] = tested on: E. coli-vaccinated mice; experiment: Survival in E. coli-induced sepsis model; assay type: in vivo; conditions: E. coli 1×10^9 cells/mouse; 17.5 mg/kg four times from 2 hours after vaccination; compared with PBS
Description: Male WT ICR mice were used to evaluate a therapeutic effect of Ac-PGP. IFN-γ-deficient mice (kindly provided by Y. K. Kim at the Pohang University of Science and Technology, Pohang, Republic of Korea) were used for mechanism study. All Examples in which animals were used were performed according to the instructions with permission of the Institutional Review Board (IRB) for the care and management of laboratory animals at Dong-A University. In the case of the CLP, mice were anesthetized with pentothal sodium (50 mg/kg, intraperitoneally injected), and abdomen of each mouse was cut along a central cutting line to expose an appendix. Then, an ileocecal valve of the appendix was tied up, both surfaces of the ileocecal valve were punctured twice with a 22-gauge needle (or punctured once to measure a production amount of cytokines), and the abdomen was sutured. Sham CLP mice were treated in the same manner as described above, except that CLP of the appendix was not performed. A survival rate of the mice was monitored every day for 10 days. In the case of the LPS or E. coli model, E. coli and LPS were intraperitoneally injected at concentrations of 1×10^9 cells/mouse and 60 mg/kg, respectively. A survival rate of the mice was monitored once a day for 10 days.
In another mouse model of sepsis, a therapeutic effect of Ac-PGP was also evaluated.

[4] = tested on: CLP mice; experiment: Cytokines in peritoneal fluid after CLP (ELISA); assay type: in vivo, mouse
Description: To measure a production amount of cytokines induced by CLP in a peritoneal lavage fluid, mice were provided with Ac-PGP for 2 hours, 14 hours, 26 hours, and 38 hours after CLP. A peritoneal lavage fluid was collected within various time zones between 4 and 72 hours after the CLP, and cytokines present in the peritoneal fluid was measured using ELISA (BD Biosciences Pharmingen).
An effect of the Ac-PGP on a pro-inflammatory cytokine in a peritoneal fluid by CLP was determined from 4 to 72 hours after the CLP. The CLP induced a remarkable increase in levels of pro-inflammatory cytokines (TNF-α, IL-1β and IL-6) within 24 hours (FIGS. 14 to 16). Injection of the Ac-PGP in a sepsis model by the CLP induced a remarkable change in levels of the cytokines. […] To evaluate an effect of the Ac-PGP on production of the pro-inflammatory cytokines by the LPS, in vitro production of TNF-α and IL-6 by the mouse splenocytes was evaluated. Direct release of the TNF-α and IL-6 from the mouse splenocytes by the LPS was suppressed by in vitro treatment with the Ac-PGP (FIGS. 17 and 18).
An effect of the Ac-PGP on levels of Th1 cytokines by CLP in a peritoneal fluid was also determined from 4 to 72 hours after the CLP.

[5] = tested on: human neutrophils; experiment: Disinfection activity of human neutrophils against opsonized E. coli; assay type: cell-based; conditions: FIG. 27
Excerpt: as §1
The disinfection activities of the neutrophils were measured according to a method disclosed by Yan et al. (Yan J J et al. 2004 Nat. Med. 10:161-167). The neutrophils were stationarily incubated at 37° C. for an hour on a 13 mm plastic cover slip in a 60 mm plastic culture dish. The non-attached cells were removed by PBS. The attached neutrophils were stationarily incubated for an hour with 10^6 opsonized E. coli cells. The non-phagocytized E. coli cells were washed, and the number of bacteria surviving in the neutrophils was determined before and after the E. coli cells were treated with various concentrations of Ac-PGP or vehicle for an hour. A percentage of the apoptosized bacteria was calculated as follows. 100×(1−CFU Number after stimulus with Ac-PGP/CFU Number before stimulus with Ac-PGP)
Since Ac-PGP strongly promoted the disinfection activity of the mouse neutrophils, a bacteriocidal effect of the Ac-PGP on human neutrophils was examined.

## acetylated-Pro-Gly-Pro [Ac-PGP]
[1]
  activation of caspase-3: remarkably suppressed
[2]; FIG. 29
  production of TNF-α: remarkably suppressed
[2]; FIG. 31
  production of IFN-γ: remarkably improved
[3]
  death rate: death rate decreased
[4]; 4 to 72 hours after CLP, FIG. 14
  level of TNF-α in peritoneal fluid: induced a decrease in levels
[4]; 4 to 72 hours after CLP, FIG. 15
  level of IL-1β in peritoneal fluid: induced a decrease in levels
[4]; 4 to 72 hours after CLP, FIG. 16
  level of IL-6 in peritoneal fluid: induced a decrease in levels
[4]; 4 to 72 hours after CLP, FIG. 19
  level of IFN-γ in peritoneal fluid: remarkably increased
[4]; 4 to 72 hours after CLP, FIG. 20
  level of IL-12p70 in peritoneal fluid: remarkably increased
[4]; 4 to 72 hours after CLP, FIG. 21
  level of IL-2 in peritoneal fluid: remarkably increased
[4]; 24 hours after the CLP
  level of IFN-γ in the peritoneal fluid: improved levels
  level of IL-12 in the peritoneal fluid: improved levels
[5]; 20 nM
  killing of opsonified E. coli: almost completely killed opsonified E. coli
[5]; 100 nM
  disinfection activity: remarkably improved the disinfection activity
[5]; various concentrations
  bacterial killing by the human neutrophils: dose-dependent effect on bacterial killing
